From US4912116A, “Propiophenone derivatives for treatment of pollakiuria (frequency urination)” (Hokuriku Pharmaceutical Co., Ltd., priority 1986, dated 1990)
Read-outs that look alike come from different tables or passages of the source.

Columns and labels:
[1] = tested on: micturition reflex (rhythmic bladder contractions); test: Inhibition of micturition reflex (rhythmic bladder contractions) in anesthetized rats; type: in vivo, male wister rats; conditions: for Disappearance time (of bladder contractions): i.v., 3 rats, mean ± S.E.
Procedure: (§1) statistical analysis: Each data of Experiment 1-6 represents the mean±S.E. statistical analysis of the data was performed using student's t-test.
According to the method described by Morikawa et al. (Folia phamacol. japon.: 88,355 (1986), male wister rats weighing about 300 g (in case of intraduodenal administration, fasted 18-20 hours) were anesthetized with urethane (500 mg/kg, i.p.) and alpha-chloralose (50 mg/kg, i.p.), and fixed on their back.
Then, through a midline incision of the abdomen, the urinary bladder was exposed, provided with a small incision, and a balloon (capacity about 1 ml) was inserted into the bladder dome.
The balloon was connected to a pressure transducer and variations of inside pressure were recorded on a recorder.
Micturition reflex was elicited by elevating balloon pressure 10-20 cm H2 O.
In case of intravenous administration, the drug was administrated through a cannula inserted into the left jugular vein and, in case of intraduodenum administration, the drug was administrated through a cannula into the duodenum from outside the stomach.
In case of intravenous administration, the drug was evaluated by the dissappearance time of bladder contractions caused by micturition reflex.
In case of intraduodenal administration, the sum total of amplitude of bladder contractions caused by the micturition reflex was calculated during each five minutes at 5 min. before and 15, 30, 45, and 60 min. after the administration.
Then, the maximum inhibition rate was determined from one of the above judgment times compared with that of before the administration, and the dose which inhibited 50 percent of the sum total of amplitude of bladder contractions during five minutes (ED 50 value), was calculated from the graph.

[2] = tested on: cystometrogram (time to micturition); test: Effects on the cystometrogram (Dog); type: in vivo, Mongrel adult dogs; conditions: i.v., dogs, mean ± S.E., saline 6.0 ± 13.8
Procedure: as §1
Mongrel adult dogs weighing about 10 kg were anesthetized with thiopental (20 mg/kg, i.v.) and immobilized with gallamine (2 mg/kg, i.v.), and fixed on their back.
In the experiment, infusion of pentobarbital (3 mg/kg/hr, i.v.) and gallamine (3 mg/kg i.v.) were continuted, and artifical respiration was performed (20 times/min, 20 ml air/kg).
After midline incision of the abdomen, the ureters were ligated and polyethylene tubes were inserted into the kidney side and the urinary bladder side. Urine was led out of the body from the kidney side, and warm saline was infused using a continuous infusion pump from the urinary bladder side.
Then, a catheter was inserted into the bladder dome and connected to a pressure transducer. Intravesical pressure was recorded on a recorder.
The infusion rate of saline was changed (6-35 ml/min) so as to induce the time to micturition from the saline infusion (time to micturition) at about five minutes.
The drug was administered (through a cannula inserted into the right femoral vein) at the second minute before the last time to micturition, and the delayed time of micturition was evaluated.

[3] = tested on: cystometrogram (time to micturition); test: Effects on the cystometrogram (Cat); type: in vivo, Mongrel adult cats; conditions: cats; for ED (2 min delay of micturition): Felis catus, read-out: ED2 (dose which delayed time to micturition by 2 min.)
Procedure: as §1
Mongrel adult cats weighing about 3 kg (in case of intraduodenal administration, fasted 24 hours) were anesthetized with urethane (500 mg/kg, i.p.) and alpha-chloralose (50 mg/kg, i.p.) and fixed on their back.
After midline incision of the abdomen, the ureters were ligated and polyethylene tubes were inserted into the kidney side and urinary bladder side, urine was led out of the body from the kidney side, and warm saline was infused using a continuous infusion pump from the urinary bladder side.
Then, a catheter was inserted into the bladder dome and connected to a pressure transducer Intravesical pressure was recorded on a recorder.
The infusion rate of saline was changed (0.7-6.6 ml/min) so as to induce the time to micturition from saline infusion at about five minutes.
Each of delayed time of micturition was evaluated. In case of intravenous administration, the drug was administered through a cannula inserted into the right femoral vein at 30 seconds before saline infusion.
In case of intraduodenal administration, the drug was administrated through a tube inserted into the duodenum by way of mouth at the time of saline infusion, and the time to micturition was measured at 15 min. intervals until 90 min.

[4] = tested on: cystometrogram (time to micturition); test: Effects on the cystometrogram (in anesthetized rat); type: in vivo, Male Wister rats; conditions: i.v., 6 rats, mean ± S.E., saline -6.0 ± 49.8
Procedure: as §1
Male Wister rats weighing about 300 g were anesthetized with urethane (500 mg/kg, i.p.) and α-chloralose (50 mg/kg, i.p.) and fixed on their back.
Then, through a midline incision of the abdomen, the urinary bladder was exposed, provided with a small incision, a polyethylene tube was inserted into the bladder dome, and ureters were cut.
Then, through the polyethylene tube, saline was infused using a continuous infusion pump. On the other hand, the polyethylene tube was connected to a pressure transducer. Intravesical pressure was recorded on a recorder.
The drug was administrated through a cannula inserted into the left jugular vein at 30 sec before saline infusion. Effect of the drug was represented by delayed time to micturition.

[5] = tested on: cystometrogram (time to micturition); test: Effect on the cystometrogram (pollakiuria model rats induced by hypogastric nerve transection); type: in vivo, Male Wister rats; conditions: i.v., mean ± S.E., saline -6.0 ± 31.8
Procedure: as §1
Male Wister rats weighing 300 g were incised midline of the abdomen, and bilateral hypogastric nerves were transected.
Two days after hypogastric nerve transection, the rats were anesthetized with urethane (500 mg/kg, i.p.) and alpha-chloralose (50 mg/kg, i.p.) and fixed on their back.
Then, through a midline incision of the abdomen, the urinary bladder was exposed, provided with a small incision, a polyethylene tube inserted, and ureters were cut.
Through the polyethylene tube, saline was infused using a continuous infusion pump. On the other hand, the polyethylene tube was connected to a pressure transducer. Intravesical pressure was recorded on a recorder.
The drug was administrated through a cannula inserted into the left jugular vein at 30 sec before saline infusion.
Effect of drug was represented as delayed time to micturition.

Structure (SMILES): CCc1ccc(C(=O)C(C)CN2CCCC2)cc1 (stereo not drawn) [Compound 1]
- Disappearance time (of bladder contractions) ([1]; 1 mg/kg): 1.1 ± 1.1 min
- Disappearance time (of bladder contractions) ([1]; 2 mg/kg): 2.3 ± 0.5 min
- Disappearance time (of bladder contractions) ([1]; 4 mg/kg): 7.1 ± 2.8 min
- ED (3 min disappearance of contractions) ([1]; Rattus norvegicus, iv, read-out: ED3 (dose at which rhythmic bladder contractions disappeared in three (3) minutes)): 2.2 mg/kg
- ED50 ([1]; Rattus norvegicus, intraduodenal administration, read-out: ED50 (dose which inhibited 50 percent of the sum total of amplitude of bladder contractions during five minutes)): 14.3 mg/kg
- Delayed time of micturition ([2]; 1 mg/kg): 13.2 ± 21.0 s
- Delayed time of micturition ([2]; 3 mg/kg, * p < 0.05 vs last time to micturition): 50.4 ± 15.0 s
- Delayed time to micturition ([3]; 1 mg/kg, i.v., mean ± S.E., saline 6.6 ± 10.2): -19.2 ± 6.6 s
- Delayed time to micturition ([3]; 4 mg/kg, i.v., mean ± S.E., saline 6.6 ± 10.2): 70.8 ± 27.0 s
- Delayed time to micturition ([3]; 8 mg/kg, i.v., mean ± S.E., saline 6.6 ± 10.2): 170.4 ± 48.0 s
- Delayed time to micturition ([3]; 12.5 mg/kg, i.d., after 30 min., water 22.2 ± 16.2): 49.8 ± 8.4 s
- Delayed time to micturition ([3]; 25.0 mg/kg, i.d., after 30 min., ** p < 0.01 vs control, water 22.2 ± 16.2): 105.0 ± 10.8 s
- Delayed time to micturition ([3]; 50.0 mg/kg, i.d., after 30 min., water 22.2 ± 16.2): 128.4 ± 37.8 s
- ED (2 min delay of micturition) ([3]; intraduodenal, 0.5 h, i.d., after 30 min.): 39 mg/kg
- ED (2 min delay of micturition) ([3]; iv, 2 min, i.v.): 5.6 mg/kg
- Delayed time of micturition ([4]; 1 mg/kg): 52.8 ± 50.4 s
- Delayed time of micturition ([4]; 4 mg/kg): 102.0 ± 32.4 s
- Delayed time of micturition ([4]; 8 mg/kg, ** P < 0.01 vs control): 200.4 ± 60.6 s
- Delayed time of micturition ([5]; 1 mg/kg, 5 rats): 91.8 ± 47.4 s
- Delayed time of micturition ([5]; 4 mg/kg, 5 rats): 179.4 ± 111.0 s
- Delayed time of micturition ([5]; 8 mg/kg, 6 rats, ** P < 0.01 vs control): 449.4 ± 65.4 s
